Data as given in patent publication US10336732B2, “1-heterocyclyl isochromanyl compounds and analogs for treating CNS disorders” (Sunovion Pharmaceuticals Inc., priority 2015, dated 2019).

system: mice; experiment: Neuropharmacological assay (SmartCube), behavioral signature of compound-treated mice; format: in vivo; settings: i.p. 15 min before behavioral test, most efficacious dose(s) of 3 doses
Method in brief: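 Mice received compound i.p. in NMP/PEG/propylene glycol vehicle at 3 doses, 15 min before testing. Video-captured behavior was algorithmically compared with a reference-drug signature database.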

| SMILES | AD: ADHD (probability that behavioral signature matches class) | AG: analgesic (probability that behavioral signature matches class) | AX: anxiolytic (probability that behavioral signature matches class) | CE: cognitive enhancer (probability that behavioral signature matches class) | DP: anti-depressant (probability that behavioral signature matches class) | HA: hallucinogen (probability that behavioral signature matches class) | MS: mood stabilizer (probability that behavioral signature matches class) | PS: anti-psychotic (probability that behavioral signature matches class) | SD: sedative hypnotic (probability that behavioral signature matches class) | UN: uncharacterized CNS activity (probability that behavioral signature matches class) |
| --- | --- | --- | --- | --- | --- | --- | --- | --- | --- | --- |
| Clc1ccc2c(c1)CCO[C@@H]2[C@@H]1CCCN1 [Compound I-33, (S)-2-((S)-6-chloroisochroman-1-yl)pyrrolidine] | + (LOQ ≤ + <5%) | + (LOQ ≤ + <5%) | ++ (5% ≤ ++ <25%) | ++ (5% ≤ ++ <25%) | ++ (5% ≤ ++ <25%) | + (LOQ ≤ + <5%) | + (LOQ ≤ + <5%) | +++ (25% ≤ +++ <50%) | ++ (5% ≤ ++ <25%) | + (LOQ ≤ + <5%) |
| Clc1ccc2c(c1)[C@@H]([C@@H]1CCCN1)OCC2 [Compound I-30, (S)-2-((S)-7-chloroisochroman-1-yl)pyrrolidine] | + (LOQ ≤ + <5%) | ++ (5% ≤ ++ <25%) | +++ (25% ≤ +++ <50%) | ++ (5% ≤ ++ <25%) | ++ (5% ≤ ++ <25%) | + (LOQ ≤ + <5%) | + (LOQ ≤ + <5%) | +++ (25% ≤ +++ <50%) | ++ (5% ≤ ++ <25%) | + (LOQ ≤ + <5%) |
| Fc1ccc2c(c1)[C@@H]([C@@H]1CCN1)OCC2 [Compound I-85, (S)-2-((S)-7-fluoroisochroman-1-yl)azetidine] | + (LOQ ≤ + <5%) | + (LOQ ≤ + <5%) | ++ (5% ≤ ++ <25%) | ++ (5% ≤ ++ <25%) | ++ (5% ≤ ++ <25%) | + (LOQ ≤ + <5%) | + (LOQ ≤ + <5%) | +++ (25% ≤ +++ <50%) | ++ (5% ≤ ++ <25%) | ++ (5% ≤ ++ <25%) |
| COc1cccc2c1[C@@H]([C@H]1CCCN1)OCC2 [Compound I-50, (R)-2-((S)-8-methoxyisochroman-1-yl)pyrrolidine] | + (LOQ ≤ + <5%) | ++ (5% ≤ ++ <25%) | +++ (25% ≤ +++ <50%) | ++ (5% ≤ ++ <25%) | ++ (5% ≤ ++ <25%) | + (LOQ ≤ + <5%) | + (LOQ ≤ + <5%) | ++ (5% ≤ ++ <25%) | + (LOQ ≤ + <5%) | +++ (25% ≤ +++ <50%) |
| Fc1ccc2c(c1)[C@H]([C@H]1CCCN1)OCCC2 [Compound I-109, (R)-2-((R)-8-fluoro-1,3,4,5-tetrahydrobenzo[c]oxepin-1-yl)pyrrolidine] | + (LOQ ≤ + <5%) | ++ (5% ≤ ++ <25%) | ++ (5% ≤ ++ <25%) | + (LOQ ≤ + <5%) | +++ (25% ≤ +++ <50%) | + (LOQ ≤ + <5%) | ++ (5% ≤ ++ <25%) | ++ (5% ≤ ++ <25%) | ++ (5% ≤ ++ <25%) | ++ (5% ≤ ++ <25%) |
| Clc1ccc2c(c1)[C@@H]([C@H]1CCCN1)OCC2 [Compound I-32, (R)-2-((S)-7-chloroisochroman-1-yl)pyrrolidine] | + (LOQ ≤ + <5%) | +++ (25% ≤ +++ <50%) | ++ (5% ≤ ++ <25%) | ++ (5% ≤ ++ <25%) | ++ (5% ≤ ++ <25%) | + (LOQ ≤ + <5%) | + (LOQ ≤ + <5%) | +++ (25% ≤ +++ <50%) | ++ (5% ≤ ++ <25%) | + (LOQ ≤ + <5%) |
| Cc1ccc2c(c1)[C@H](C1CNC1)OCC2 [Compound I-117, (S)-3-(7-methylisochroman-1-yl)azetidine] | + (LOQ ≤ + <5%) | + (LOQ ≤ + <5%) | ++ (5% ≤ ++ <25%) | ++ (5% ≤ ++ <25%) | ++ (5% ≤ ++ <25%) | + (LOQ ≤ + <5%) | + (LOQ ≤ + <5%) | +++ (25% ≤ +++ <50%) | + (LOQ ≤ + <5%) | + (LOQ ≤ + <5%) |
| c1cc(-c2ccc3c(c2)CCO[C@@H]3[C@@H]2CCCN2)on1 [Compound I-55, 5-((S)-1-((S)-pyrrolidin-2-yl)isochroman-6-yl)isoxazole] | + (LOQ ≤ + <5%) | + (LOQ ≤ + <5%) | + (LOQ ≤ + <5%) | + (LOQ ≤ + <5%) | + (LOQ ≤ + <5%) | + (LOQ ≤ + <5%) | + (LOQ ≤ + <5%) | + (LOQ ≤ + <5%) | + (LOQ ≤ + <5%) | + (LOQ ≤ + <5%) |
| c1ccc2c(c1)CCO[C@@H]2C1CNC1 [Compound I-114, (R)-3-(isochroman-1-yl)azetidine] | + (LOQ ≤ + <5%) | ++ (5% ≤ ++ <25%) | ++ (5% ≤ ++ <25%) | ++ (5% ≤ ++ <25%) | +++ (25% ≤ +++ <50%) | + (LOQ ≤ + <5%) | + (LOQ ≤ + <5%) | ++ (5% ≤ ++ <25%) | ++ (5% ≤ ++ <25%) | + (LOQ ≤ + <5%) |
| c1ccc2c(c1)CCO[C@H]2[C@@H]1CCN1 [Compound I-80, (S)-2-((R)-iso-chroman-1-yl)azetidine] | + (LOQ ≤ + <5%) | ++ (5% ≤ ++ <25%) | ++ (5% ≤ ++ <25%) | ++ (5% ≤ ++ <25%) | +++ (25% ≤ +++ <50%) | + (LOQ ≤ + <5%) | ++ (5% ≤ ++ <25%) | ++ (5% ≤ ++ <25%) | + (LOQ ≤ + <5%) | +++ (25% ≤ +++ <50%) |
| Fc1ccc2c(c1)CCO[C@@H]2[C@@H]1CCCN1 [Compound I-10, (S)-2-((S)-6-fluoroisochroman-1-yl)pyrrolidine] | + (LOQ ≤ + <5%) | ++ (5% ≤ ++ <25%) | ++ (5% ≤ ++ <25%) | ++ (5% ≤ ++ <25%) | ++ (5% ≤ ++ <25%) | + (LOQ ≤ + <5%) | + (LOQ ≤ + <5%) | ++ (5% ≤ ++ <25%) | + (LOQ ≤ + <5%) | + (LOQ ≤ + <5%) |

same assay, conditions: i.p. 15 min before behavioral test, most efficacious dose(s) of 3 doses

| SMILES | XG: anxiogenic (probability that behavioral signature matches class) |
| --- | --- |
| Clc1ccc2c(c1)CCO[C@@H]2[C@@H]1CCCN1 [Compound I-33, (S)-2-((S)-6-chloroisochroman-1-yl)pyrrolidine] | + (LOQ ≤ + <5%) |
| Clc1ccc2c(c1)[C@@H]([C@@H]1CCCN1)OCC2 [Compound I-30, (S)-2-((S)-7-chloroisochroman-1-yl)pyrrolidine] | + (LOQ ≤ + <5%) |
| Fc1ccc2c(c1)[C@@H]([C@@H]1CCN1)OCC2 [Compound I-85, (S)-2-((S)-7-fluoroisochroman-1-yl)azetidine] | + (LOQ ≤ + <5%) |
| COc1cccc2c1[C@@H]([C@H]1CCCN1)OCC2 [Compound I-50, (R)-2-((S)-8-methoxyisochroman-1-yl)pyrrolidine] | + (LOQ ≤ + <5%) |
| Fc1ccc2c(c1)[C@H]([C@H]1CCCN1)OCCC2 [Compound I-109, (R)-2-((R)-8-fluoro-1,3,4,5-tetrahydrobenzo[c]oxepin-1-yl)pyrrolidine] | + (LOQ ≤ + <5%) |
| Clc1ccc2c(c1)[C@@H]([C@H]1CCCN1)OCC2 [Compound I-32, (R)-2-((S)-7-chloroisochroman-1-yl)pyrrolidine] | + (LOQ ≤ + <5%) |
| Cc1ccc2c(c1)[C@H](C1CNC1)OCC2 [Compound I-117, (S)-3-(7-methylisochroman-1-yl)azetidine] | + (LOQ ≤ + <5%) |
| c1cc(-c2ccc3c(c2)CCO[C@@H]3[C@@H]2CCCN2)on1 [Compound I-55, 5-((S)-1-((S)-pyrrolidin-2-yl)isochroman-6-yl)isoxazole] | + (LOQ ≤ + <5%) |
| c1ccc2c(c1)CCO[C@@H]2C1CNC1 [Compound I-114, (R)-3-(isochroman-1-yl)azetidine] | + (LOQ ≤ + <5%) |
| c1ccc2c(c1)CCO[C@H]2[C@@H]1CCN1 [Compound I-80, (S)-2-((R)-iso-chroman-1-yl)azetidine] | + (LOQ ≤ + <5%) |
| Fc1ccc2c(c1)CCO[C@@H]2[C@@H]1CCCN1 [Compound I-10, (S)-2-((S)-6-fluoroisochroman-1-yl)pyrrolidine] | + (LOQ ≤ + <5%) |
